Data: ChEMBL document CHEMBL1123145, “Synthesis of pyrrolizidine alkaloids indicine, intermedine, lycopsamine, and analogues and their N-oxides. Potential antitumor agents” (1985)

Legend:
Type in all cases: functional, Mus musculus
P388 [1] = assay: Weight difference observed in survivors treated for antitumor activity against P388 Lymphocytic Leukemia system at a dose of 17 mg/kg
P388 [2] = assay: Number of Survivors determined for antitumor activity against P388 Lymphocytic Leukemia system on day 5 at a dose of 68 mg/kg(6 out of 6)
P388 [3] = assay: Survival rate of the animals determined for antitumor activity against P388 Lymphocytic Leukemia system at a dose of 34 mg/kg
P388 [4] = assay: Survival rate of the animals determined for antitumor activity against P388 Lymphocytic Leukemia system at a dose of 8.5 mg/kg
P388 [5] = assay: Weight difference observed in survivors treated for antitumor activity against P388 Lymphocytic Leukemia system at a dose of 68 mg/kg
P388 [6] = assay: Weight difference observed in survivors treated for antitumor activity against P388 Lymphocytic Leukemia system at a dose of 8.5 mg/kg
P388 [7] = assay: Survival rate of the animals determined for antitumor activity against P388 Lymphocytic Leukemia system at a dose of 17 mg/kg
P388 [8] = assay: Number of Survivors determined for antitumor activity against P388 Lymphocytic Leukemia system on day 5 at a dose of 8.5 mg/kg(6 out of 6)
P388 [9] = assay: Survival rate of the animals determined for antitumor activity against P388 Lymphocytic Leukemia system at a dose of 68 mg/kg
P388 [10] = assay: Weight difference observed in survivors treated for antitumor activity against P388 Lymphocytic Leukemia system at a dose of 34 mg/kg
P388 [11] = assay: Number of Survivors determined for antitumor activity against P388 Lymphocytic Leukemia system on day 5 at a dose of 34 mg/kg (6 out of 6)
P388 [12] = assay: Number of Survivors determined for antitumor activity against P388 Lymphocytic Leukemia system on day 5 at a dose of 17 mg/kg (6 out of 6)
P388 [13] = assay: Weight difference observed in survivors treated for antitumor activity against P388 Lymphocytic Leukemia system at a dose of 30 mg/kg
P388 [14] = assay: Weight difference observed in survivors treated for antitumor activity against P388 Lymphocytic Leukemia system at a dose of 240 mg/kg
P388 [15] = assay: Number of Survivors determined for antitumor activity against P388 Lymphocytic Leukemia system on day 5 at a dose of 120 mg/kg (6 out of 6)
P388 [16] = assay: Number of Survivors determined for antitumor activity against P388 Lymphocytic Leukemia system on day 5 at a dose of 240 mg/kg (6 out of 6)
P388 [17] = assay: Weight difference observed in survivors treated for antitumor activity against P388 Lymphocytic Leukemia system at a dose of 15 mg/kg
P388 [18] = assay: Number of Survivors determined for antitumor activity against P388 Lymphocytic Leukemia system on day 5 at a dose of 15 mg/kg (6 out of 6)
P388 [19] = assay: Number of Survivors determined for antitumor activity against P388 Lymphocytic Leukemia system on day 5 at a dose of 60 mg/kg (6 out of 6)
P388 [20] = assay: Survival rate of the animals determined for antitumor activity against P388 Lymphocytic Leukemia system at a dose of 120 mg/kg
P388 [21] = assay: Survival rate of the animals determined for antitumor activity against P388 Lymphocytic Leukemia system at a dose of 240 mg/kg
P388 [22] = assay: Survival rate of the animals determined for antitumor activity against P388 Lymphocytic Leukemia system at a dose of 480 mg/kg
P388 [23] = assay: Weight difference observed in survivors treated for antitumor activity against P388 Lymphocytic Leukemia system at a dose of 120 mg/kg
P388 [24] = assay: Weight difference observed in survivors treated for antitumor activity against P388 Lymphocytic Leukemia system at a dose of 60 mg/kg
P388 [25] = assay: Survival rate of the animals determined for antitumor activity against P388 Lymphocytic Leukemia system at a dose of 60 mg/kg
P388 [26] = assay: Weight difference observed in survivors treated for antitumor activity against P388 Lymphocytic Leukemia system at a dose of 480 mg/kg
P388 [27] = assay: Survival rate of the animals determined for antitumor activity against P388 Lymphocytic Leukemia system at a dose of 30 mg/kg
P388 [28] = assay: Number of Survivors determined for antitumor activity against P388 Lymphocytic Leukemia system on day 5 at a dose of 30 mg/kg (6 out of 6)
P388 [29] = assay: Number of Survivors determined for antitumor activity against P388 Lymphocytic Leukemia system on day 5 at a dose of 480 mg/kg(6 out of 6)
P388 [30] = assay: Survival rate of the animals determined for antitumor activity against P388 Lymphocytic Leukemia system at a dose of 15 mg/kg
P388 [31] = assay: Number of Survivors determined for antitumor activity against P388 Lymphocytic Leukemia system on day 5 at a dose of 240 mg/kg ([…])
P388 [32] = assay: Weight difference observed in survivors treated for antitumor activity against P388 Lymphocytic Leukemia system at a dose of 10.5 mg/kg
P388 [33] = assay: Survival rate of the animals determined for antitumor activity against P388 Lymphocytic Leukemia system at a dose of 84 mg/kg
P388 [34] = assay: Number of Survivors determined for antitumor activity against P388 Lymphocytic Leukemia system on day 5 at a dose of 84 mg/kg(6 out of 6)
P388 [35] = assay: Weight difference observed in survivors treated for antitumor activity against P388 Lymphocytic Leukemia system at a dose of 84 mg/kg
P388 [36] = assay: Weight difference observed in survivors treated for antitumor activity against P388 Lymphocytic Leukemia system at a dose of 42 mg/kg
P388 [37] = assay: Survival rate of the animals determined for antitumor activity against P388 Lymphocytic Leukemia system at a dose of 21 mg/kg
P388 [38] = assay: Number of Survivors determined for antitumor activity against P388 Lymphocytic Leukemia system on day 5 at a dose of 10.5 mg/kg (6 out of 6)
P388 [39] = assay: Number of Survivors determined for antitumor activity against P388 Lymphocytic Leukemia system on day 5 at a dose of 21 mg/kg(6 out of 6)
P388 [40] = assay: Weight difference observed in survivors treated for antitumor activity against P388 Lymphocytic Leukemia system at a dose of 21 mg/kg
P388 [41] = assay: Survival rate of the animals determined for antitumor activity against P388 Lymphocytic Leukemia system at a dose of 10.5 mg/kg
P388 [42] = assay: Number of Survivors determined for antitumor activity against P388 Lymphocytic Leukemia system on day 5 at a dose of 42 mg/kg
P388 [43] = assay: Number of Survivors determined for antitumor activity against P388 Lymphocytic Leukemia system on day 5 at a dose of 42 mg/kg(6 out of 6)
P388 [44] = assay: Number of Survivors determined for antitumor activity against P388 Lymphocytic Leukemia system on day 5 at a dose of 96 mg/kg(5 out of 6)
P388 [45] = assay: Weight difference observed in survivors treated for antitumor activity against P388 Lymphocytic Leukemia system at a dose of 48 mg/kg
P388 [46] = assay: Weight difference observed in survivors treated for antitumor activity against P388 Lymphocytic Leukemia system at a dose of 24 mg/kg
P388 [47] = assay: Weight difference observed in survivors treated for antitumor activity against P388 Lymphocytic Leukemia system at a dose of 96 mg/kg
P388 [48] = assay: Survival rate of the animals determined for antitumor activity against P388 Lymphocytic Leukemia system at a dose of 96 mg/kg
P388 [49] = assay: Survival rate of the animals determined for antitumor activity against P388 Lymphocytic Leukemia system at a dose of 192 mg/kg
P388 [50] = assay: Weight difference observed in survivors treated for antitumor activity against P388 Lymphocytic Leukemia system at a dose of 192 mg/kg
P388 [51] = assay: Survival rate of the animals determined for antitumor activity against P388 Lymphocytic Leukemia system at a dose of 48 mg/kg

Row | SMILES | T-C (P388 [13]) | T-C (P388 [14]) | Survivors (P388 [15]) | T-C (P388 [17]) | Survivors (P388 [18]) | Survivors (P388 [19]) | T/C (P388 [20]) [%] | T/C (P388 [21]) [%] | T/C (P388 [22]) [%] | T-C (P388 [23]) | T-C (P388 [24]) | T/C (P388 [25]) [%] | T-C (P388 [26]) | T/C (P388 [27]) [%] | Survivors (P388 [28]) | Survivors (P388 [29]) | T/C (P388 [30]) [%] | further results
1 | CC(O)C(C)(O)C(=O)OCC1=CC[N+]2([O-])CC[C@@H](O)[C@@H]12 (stereo partly drawn) |  |  |  |  |  |  |  |  |  |  |  |  |  |  |  |  |  | T-C (P388 [1]): 0; Survivors (P388 [2]): 6; T/C (P388 [3]): 127%; T/C (P388 [4]): 115%; T-C (P388 [5]): -0.4; T-C (P388 [6]): -0.3; T/C (P388 [7]): 117%; Survivors (P388 [8]): 6; T/C (P388 [9]): 131%; T-C (P388 [10]): -0.4; Survivors (P388 [11]): 6; Survivors (P388 [12]): 6
2 | CC(C)CC(=O)OCC1=CCN2CC[C@@H](O)[C@@H]12 | -0.3 | -0.8 | 6 | -0.6 | 6 | 6 | 108 | 108 | 114 | -0.1 | -0.4 | 105 | -2.7 | 109 | 6 | 6 | 105 | Survivors (P388 [16]): 6
3 | O=C(Cc1ccccc1)OCC1=CCN2CC[C@@H](O)[C@@H]12 | -0.5 | -0.1 | 6 | -0.8 | 6 | 6 | 109 | 105 | 116 | -0.6 | -0.3 | 97 | -2.1 | 99 | 6 | 6 | 97 | Survivors (P388 [31]): 6
4 | O=C(Cc1ccccc1)OCC1=CC[N+]2([O-])CC[C@@H](O)C12.O=C(OCC1=CC[N+]2([O-])CC[C@@H](O)C12)c1ccccc1 (stereo partly drawn) |  |  |  |  |  |  |  |  |  |  |  |  |  |  |  |  |  | T-C (P388 [32]): 0; T/C (P388 [33]): 114%; Survivors (P388 [34]): 6; T-C (P388 [35]): 0.1; T-C (P388 [36]): 0.3; T/C (P388 [37]): 108%; Survivors (P388 [38]): 6; Survivors (P388 [39]): 6; T-C (P388 [40]): -0.1; T/C (P388 [41]): 104%; T/C (P388 [42]): 117%; Survivors (P388 [43]): 6
5 | CC(C)C(O)(C(=O)OCC1=CC[N+]2([O-])CC[C@@H](O)C12)C(C)O (stereo in doubt; form 2) |  |  |  |  |  |  |  |  |  |  |  |  |  |  |  |  |  | Survivors (P388 [44]): 5; T-C (P388 [45]): 1.3; T-C (P388 [46]): -0.4; T-C (P388 [47]): 0.1; T/C (P388 [48]): 116%; T/C (P388 [49]): 118%; T-C (P388 [50]): -4.8; T/C (P388 [51]): 100%
